Measurements taken from article PMC6888386, “Identification of Novel 1,3,5-Triphenylbenzene Derivative Compounds as Inhibitors of Hen Lysozyme Amyloid Fibril Formation” (International Journal of Molecular Sciences, 2019).

Experiments:
[1] = target: T1, hen egg white lysozyme (HEWL) (Gallus gallus, UniProt P00698); assay: ThT fluorescence assay of HEWL amyloid fibril formation; type: biochemical; settings: 48 h; for IC50: HEWL 2 mg/mL (140 µM), 50 mM glycine buffer pH 2.5, 57 °C, stirring 250 rpm, compound 0.03-2.6 µM, Figure 2, read-out: IC50 of prevention of HEWL amyloid fibril formation; for Relative efficacy as inhibitor in terms of IC50 value: HEWL 140 µM, pH 2.5, 57 °C
T1 construct: Hen egg white lysozyme (HEWL), thioflavin T (ThT), and Congo red (CR) were purchased from Sigma-Aldrich; purchased Sigma-Aldrich (St. Louis, MO, USA); host or cells: hen egg white (per the product name)
T1 sequence (P00698 19-147): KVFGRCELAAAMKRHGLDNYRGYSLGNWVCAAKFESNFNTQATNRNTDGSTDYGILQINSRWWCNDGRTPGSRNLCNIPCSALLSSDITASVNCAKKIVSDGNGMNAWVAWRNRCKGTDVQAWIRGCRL
Protocol: The inhibition potential of the six compounds was determined using the ThT fluorescence assay to measure the amount of amyloid aggregates after the addition of various concentrations of each compound ranging from 0.03 to 2.6 µM. Aggregation of HEWL was induced by incubating the protein for 48 h at a concentration of 2 mg/mL (140 µM) in 50 mM glycine buffer, pH 2.5, and 57 °C, while stirred gently by magnetic bars (rpm 250), in the absence or presence of 0.03–2.6 µM compounds 1–6. […] The IC50 values of the compounds, corresponding to the concentration at which the inhibitory effect is half of the maximum effect, were determined (Figure 2).
(§1) HEWL concentration was determined by optical absorption at 280 nm (ε280 = 2.65 L·g^−1·cm^−1). HEWL was dissolved to a concentration of 2 mg/mL (140 µM) in 50 mM glycine buffer, pH 2.5, centrifuged for 10 min at 13,000 rpm, then incubated at 57 °C for the specified time lengths in the absence or presence of the indicated concentrations of compounds 1–6, under gentle stirring at 250 rpm by a Teflon magnetic bar.
A mother solution of 2.5 mM ThT was prepared in 10 mM sodium phosphate buffer, 150 mM NaCl, pH 7.0. It was then passed through a 0.45 μm filter paper and stored at 4 °C until it was placed at room temperature immediately before use. At regular time intervals, a 10 µL aliquot of protein solution was mixed with 990 μL of ThT solution in a 10 × 10 mm quartz cuvette and the fluorescence emission spectra were recorded at room temperature using a Cary Eclipse VARIAN fluorescence spectrophotometer (Varian, Mulgrave, Australia) and an excitation wavelength of 440 nm.

[2] = target: T1, hen egg white lysozyme (HEWL); assay: Congo red (CR) assay of HEWL aggregation; type: biochemical; settings: 0.32 µM compound; for CR absorbance relative to that measured in the absence of the compounds: HEWL pre-incubated 48 h under aggregating conditions
Protocol: Aliquots of the same samples used for ThT experiments were also used to carry out the CR assays. […] The higher CR absorbance obtained in the presence of HEWL is likely to originate from the presence of protein aggregates that scatter light, whereas the red shift of the peak from 490 to 520–540 nm indicates the presence of β-sheet containing aggregates.
as §1
Since compounds 1–6 have optical absorption spectra partially overlapped to that of CR, all protein samples were centrifuged at 10,000 rpm and the pellets resuspended in 50 mM glycine buffer, pH 2.5, at room temperature. A mother solution of 20 mM CR was prepared in 5 mM sodium phosphate buffer, 150 mM NaCl, pH 7.4, it was then filtered using a center-glass N4 filter and stored at 4 °C, until it was placed at room temperature immediately before use. At different time points during protein aggregation, a 60 μL aliquot of resuspended protein solution was mixed with 440 μL of CR solution. Optical absorption spectra were acquired after 2–3 min equilibration at 25 °C, using a Cecil 7200 UV–visible spectrophotometer (Aquarius, Cambridge, England) and a 1 cm path-length cell.

[3] = system: SH-SY5Y human neuroblastoma cells; assay: MTT reduction test with HEWL aggregates; type: cell-based; settings: for Rescue of cell viability (MTT reduction): 2 µM HEWL aggregates formed in the presence of 0.32 µM compound
Protocol: (§2) We then assessed the cytotoxicity of HEWL aggregates, formed in the absence or presence of compounds 1–6, according to the aggregation protocol described for the ThT experiments. HEWL aggregates were collected by centrifugation, dried under N2, dissolved in cell culture medium, and added to SH-SY5Y human neuroblastoma cells at a concentration of 2 µM (monomer equivalents). The ability of the resulting aggregates to cause cellular dysfunction was assessed by performing the MTT reduction inhibition assay, a widely used indicator of mitochondrial dysfunction. […] Very similar results were obtained by measuring the activity of caspase-3, a well-recognized apoptotic marker. A significant activation of caspase-3 (320 ± 12%, as compared to untreated cells) was observed following treatment for 24 h of SH-SY5Y cells with HEWL aggregates at 2 µM (Figure 7B).
(§3) Authenticated human neuroblastoma SH-SY5Y cells were purchased from American Type Culture Collection (ATCC) (Manassas, VA, USA) and they tested negative for mycoplasma contaminations. SH-SY5Y cells were cultured in Dulbecco’s modified Eagle’s medium (DMEM), F-12 Ham with 25 mM HEPES and NaHCO3 (1:1) supplemented with 10% fetal bovine serum (FBS), 1.0 mM glutamine and 1.0% penicillin and streptomycin solution. Cells were maintained in a 5.0% CO2 humidified atmosphere at 37 °C and grown until 80% confluence for a maximum of 20 passages.
HEWL samples pre-incubated for 48 h under aggregating conditions in the absence or presence of 0.32 µM compounds 1–6 were centrifuged and the pellets were dried under N2 to remove any compounds and DMSO, dissolved in cell culture medium at a final HEWL concentration of 2 μM (monomer equivalents), and added to SH-SY5Y cells seeded in 96-well plates for 24 h at 37 °C. The cell medium was then removed and the MTT solution (0.5 mg/mL in RPMI) was added to the cells for 4 h. The medium was then aspirated, and the formazan product was solubilized with cell lysis buffer (20% SDS, 50% N, N-dimethylformamide, pH 4.7) for 1 h, as previously described.

[4] = system: caspase-3 activity in SH-SY5Y cells; assay: Caspase-3 activity after exposure to HEWL aggregates; type: cell-based, human; settings: 24 h; for Prevention of the apoptotic response (caspase-3 activation) induced by aggregates: 2 µM HEWL aggregates formed in the presence of 0.32 µM compound
Protocol: as §2, §3
HEWL aggregates were formed in the absence or in the presence of 0.32 µM of compounds 1–6 as described in the previous section and then added to the cell culture medium of SH-SY5Y cells seeded on glass coverslips for 24 h at 2 μM (monomer equivalents). Caspase-3 activity was then analyzed by using FAM FLICA^TM caspases 3 & 7 solution (caspase 3 & 7 FLICA kit FAM-DEVDFMK, Immunochemistry Technologies, LLC, Bloomington, MN, USA). Cell fluorescence was analyzed by the TCS SP8 scanning confocal microscopy system (Leica Microsystems, Mannheim, Germany) equipped with an argon laser source, as previously reported. A series of 1.0 μm thick optical sections (1024 × 1024 pixels) was taken through the cell depth for each sample using a Leica Plan Apo 63 × oil immersion objective for fluorescence measurement at 488 nm. The confocal microscope was set at optimal acquisition conditions, e.g., pinhole diameters, detector gain, and laser powers. Settings were maintained constant for each analysis.

[5] = target: T1, hen egg white lysozyme (HEWL); assay: FTIR spectroscopy of HEWL aggregates; type: biochemical; settings: 0.32 µM compound, 48 h, resuspended in D2O
Protocol: New samples of HEWL aggregates with or without compounds 1–6 at a concentration of 0.32 µM were prepared, under the same conditions as those used for ThT and CR experiments, centrifuged after 48 h to collect the aggregates, resuspended at high concentration in D2O and analyzed with FTIR spectroscopy, to determine the effects of the six compounds on the secondary structure of the HEWL aggregates. […] Another peak is present at ca. 1650 cm^−1 attributable to either unordered or α-helical secondary structure.
Samples were incubated for 48 h to promote aggregation as described above in the presence of 0.32 µM compounds 1–6, centrifuged at 13,000× g for 10 min and resuspended in D2O to a final volume of 72.8 μL, to reach a final concentration of 27.8 mg/mL. For each sample, 40 μL was deposited onto an Omni-Cell transmission cell with a 25 μm spacer (Specac, Orpington, UK), and Fourier-transform infrared (FTIR) spectra were recorded using a FTS-40 FTIR spectrometer (Bio-Rad, Hercules, CA, USA) purged with a continuous flow of dry air. Sixty-four interferograms were accumulated in each case at a spectral resolution of 1 cm^−1. The FTIR absorbance spectra were blank-subtracted and baseline-corrected to reveal the amide I region (1600–1700 cm^−1). […]

[6] = target: T1, hen egg white lysozyme (HEWL); assay: Atomic force microscopy of HEWL aggregates; type: biochemical; settings: 0.32 µM compound, HEWL 140 µM, pH 2.5, 57 °C, 48 h
Protocol: In order to define further the nature of the aggregated species, an analysis of their morphologies was carried out using AFM. HEWL was incubated under the same aggregation conditions used for the ThT, CR, and FTIR experiments, i.e., for 48 h at a concentration of 2 mg/mL (140 µM) in 50 mM glycine buffer, pH 2.5, and 57 °C, under stirring (250 rpm), in the absence or presence of 0.32 µM of compounds 1–6 and the resulting samples were examined by AFM (Figure 6). […] Rather, oligomeric and/or amorphous species were predominant.
HEWL samples pre-incubated for 48 h under aggregating conditions with or without 0.32 µM compounds 1–6 were diluted 100 times in filtered deionized water. A 5 µL aliquot of each of the resulting samples was placed on freshly cleaved mica at room temperature. After a few minutes, the mica was slowly washed with 100 μL of deionized water and dried with N2. Each image was acquired in a non-contact mode at a scan speed of 30 μm/s, loop filter of 3 Hz and force of 200 nN with a Dual Scope Probe Scanner (Veeco, model Auto probe, CP-Research, CA, USA) with an area of 5 × 5 μm^2. Conical shape silicon tips (MikroMasch NSC16) with a resonance frequency of 150 kHz and a nominal constant of 40 N/m were used. Fifteen images were collected for each compound.

[7] = 24 h, 2 µM (monomer equivalents) HEWL aggregates formed in the presence of 0.32 µM compound
[8] = 24 h exposure, 2 µM (monomer equivalents), no compound

| Molecule | IC50 [1] [nM] | CR absorbance relative to that measured in the absence of the compounds [2] | melting point [°C] | Relative efficacy as inhibitor in terms of IC50 value [1] | Change of secondary structure of HEWL aggregates (amide I, loss of β-sheet) [5] | Absorbance peak at 540 nm in CR difference spectra ([2]; 48 h, spectrum of CR alone subtracted) | Rescue of cell viability (MTT reduction) ([3]; 24 h) | Prevention of the apoptotic response (caspase-3 activation) induced by aggregates [4] | MTT reduction relative to untreated cells [3, 7] [%] | MTT reduction relative to untreated cells [3, 8] | Morphology of HEWL aggregates by AFM [6] | Activation of caspase-3 as compared to untreated cells ([4]; HEWL aggregates at 2 µM, no compound) [%] |
| --- | --- | --- | --- | --- | --- | --- | --- | --- | --- | --- | --- | --- |
| O=[N+]([O-])c1ccc(-c2cc(-c3ccc([N+](=O)[O-])cc3)cc(-c3ccc([N+](=O)[O-])cc3)c2)cc1 [Compound 3, 1,3,5-tris(4-nitrophenyl)benzene] | 190 | lower | 151 to 152 | – | – | – | partial rescue | only a slight protective effect | – | – | – | – |
| Fc1ccc(-c2cc(-c3ccc(F)cc3)cc(-c3ccc(F)cc3)c2)cc1 [Compound 2, 1,3,5-tris(4-fluorophenyl)benzene] | 50 | lower | 238 to 240 | best inhibitor | most remarkable change | – | – | significantly prevented | 96.2 ± 3.2 | – | – | – |
| native HEWL: native hen egg white lysozyme | – | – | – | – | – | – | – | – | – | unaffected | – | – |
| HEWL aggregates: hen egg white lysozyme aggregates formed 48 h at pH 2.5, 57 °C in the absence of compounds | – | – | – | – | – | – | – | – | – | 73.9 ± 2.1% | – | 320 ± 12 |
| c1ccc(-c2cc(-c3ccccc3)cc(-c3ccccc3)c2)cc1 [Compound 1, 1,3,5-triphenylbenzene] | 100 | lower | 171 to 173 | – | – | – | – | significantly prevented | 92.7 ± 3.2 | – | – | – |

Continued, in another order:

| IC50 [1] [nM] | CR absorbance relative to that measured in the absence of the compounds [2] | melting point [°C] | Relative efficacy as inhibitor in terms of IC50 value [1] | Change of secondary structure of HEWL aggregates (amide I, loss of β-sheet) [5] | Absorbance peak at 540 nm in CR difference spectra ([2]; 48 h, spectrum of CR alone subtracted) | Molecule | Rescue of cell viability (MTT reduction) ([3]; 24 h) | Prevention of the apoptotic response (caspase-3 activation) induced by aggregates [4] | MTT reduction relative to untreated cells [3, 7] [%] | MTT reduction relative to untreated cells [3, 8] | Morphology of HEWL aggregates by AFM [6] | Activation of caspase-3 as compared to untreated cells ([4]; HEWL aggregates at 2 µM, no compound) [%] |
| --- | --- | --- | --- | --- | --- | --- | --- | --- | --- | --- | --- | --- |
| 400 | lower | 178 to 179 | – | – | – | Cc1ccc(-c2cc(-c3ccc(C)cc3)cc(-c3ccc(C)cc3)c2)cc1 [Compound 4, 1,3,5-tris(4-methylphenyl)benzene] | partial rescue | significantly prevented | – | – | – | – |
| 200 | lower | 142 to 143 | – | – | – | COc1ccc(-c2cc(-c3ccc(OC)cc3)cc(-c3ccc(OC)cc3)c2)cc1 [Compound 5, 1,3,5-tris(4-methoxyphenyl)benzene] | – | significantly prevented | 93.9 ± 2.9 | – | a few short fibrillar assemblies along with oligomeric species | – |
| 980 | markedly higher | 237 to 239 | minimum effect | – | only a modest decrease | Oc1ccc(-c2cc(-c3ccc(O)cc3)cc(-c3ccc(O)cc3)c2)cc1 [Compound 6, 1,3,5-tris(4-hydroxyphenyl)benzene] | partial rescue | only a slight protective effect | – | – | a mixture of unbranched filamentous assemblies | – |
